The text below walks through data of ChEMBL document CHEMBL5465560, “Selectivity Literature for EUbOPEN Chemogenomic Library” (2024).

Data set [1] concerns the target Casein kinase II subunit alpha' (Homo sapiens) (UniProt P19784). Particulars: at 10 µM.
The target of data set [2] is 5-hydroxytryptamine receptor 5A (Homo sapiens) (UniProt P47898). The experiment in a line: Selectivity interaction (GPCR panel (PDSP screen)) EUB0001079a HTR5A. Particulars: at 10 µM.
For data set [3], the target named is Casein kinase I isoform gamma-2 (Homo sapiens) (UniProt P78368). The experiment in a line: Selectivity interaction (KinomeScan (DiscoverX)) EUB0000092b CSNK1G2. Particulars: at 10 µM.
Data set [4] in a line: Selectivity interaction (KinomeScan (DiscoverX)) EUB0001049a PKNB. Particulars: at 1 µM.
Data set [5] concerns the target ALK tyrosine kinase receptor (Homo sapiens, UniProt Q9UM73). Description: Selectivity interaction (KinomeScan (DiscoverX)) EUB0000655a ALK. Particulars: at 10 µM.
For data set [6], the target named is Mitogen-activated protein kinase kinase kinase 1 (Homo sapiens, UniProt Q13233). Description: Selectivity interaction (KinomeScan (DiscoverX)) EUB0000695a MAP3K1. Particulars: at 100 nM.
The target in the next data set is hERG (KCNH2) (Homo sapiens, UniProt Q12809). Description: Selectivity interaction (Eurofins CEREP Diversity Profile (receptors and ion channels)) EUB0000279b KCNH2. Particulars: at 10 µM, read-out: % of control.
For data set [7], the target named is T1, Dual specificity protein kinase TTK (Homo sapiens) (UniProt P33981).
T1 sequence (whole entry): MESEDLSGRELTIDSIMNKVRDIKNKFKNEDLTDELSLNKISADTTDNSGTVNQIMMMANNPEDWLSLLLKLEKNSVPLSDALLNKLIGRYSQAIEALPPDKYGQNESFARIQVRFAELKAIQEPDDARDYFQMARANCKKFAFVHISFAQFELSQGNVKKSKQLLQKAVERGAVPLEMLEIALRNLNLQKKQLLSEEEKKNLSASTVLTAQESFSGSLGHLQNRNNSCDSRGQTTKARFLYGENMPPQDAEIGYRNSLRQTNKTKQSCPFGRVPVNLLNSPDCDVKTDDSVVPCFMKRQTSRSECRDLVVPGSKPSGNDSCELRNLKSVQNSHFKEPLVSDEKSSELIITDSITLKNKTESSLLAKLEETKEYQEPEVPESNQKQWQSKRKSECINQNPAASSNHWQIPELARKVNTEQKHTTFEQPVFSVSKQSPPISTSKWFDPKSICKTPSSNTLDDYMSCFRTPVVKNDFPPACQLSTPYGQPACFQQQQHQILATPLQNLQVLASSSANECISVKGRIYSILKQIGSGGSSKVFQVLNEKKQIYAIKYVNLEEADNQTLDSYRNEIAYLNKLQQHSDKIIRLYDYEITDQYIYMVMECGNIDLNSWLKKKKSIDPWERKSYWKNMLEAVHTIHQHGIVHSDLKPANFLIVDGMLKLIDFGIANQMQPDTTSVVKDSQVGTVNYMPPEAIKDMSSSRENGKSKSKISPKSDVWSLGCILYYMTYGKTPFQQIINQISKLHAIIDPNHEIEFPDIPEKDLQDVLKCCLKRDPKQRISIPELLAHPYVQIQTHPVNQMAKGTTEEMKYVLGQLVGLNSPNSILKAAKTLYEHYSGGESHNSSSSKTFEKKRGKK
The experiment in a line: Selectivity interaction (KinomeScan (DiscoverX)) EUB0000045b TTK.

For data set [8], the target named is T2, Serine/threonine-protein kinase TBK1 (Homo sapiens) (UniProt Q9UHD2).
T2 sequence (whole entry): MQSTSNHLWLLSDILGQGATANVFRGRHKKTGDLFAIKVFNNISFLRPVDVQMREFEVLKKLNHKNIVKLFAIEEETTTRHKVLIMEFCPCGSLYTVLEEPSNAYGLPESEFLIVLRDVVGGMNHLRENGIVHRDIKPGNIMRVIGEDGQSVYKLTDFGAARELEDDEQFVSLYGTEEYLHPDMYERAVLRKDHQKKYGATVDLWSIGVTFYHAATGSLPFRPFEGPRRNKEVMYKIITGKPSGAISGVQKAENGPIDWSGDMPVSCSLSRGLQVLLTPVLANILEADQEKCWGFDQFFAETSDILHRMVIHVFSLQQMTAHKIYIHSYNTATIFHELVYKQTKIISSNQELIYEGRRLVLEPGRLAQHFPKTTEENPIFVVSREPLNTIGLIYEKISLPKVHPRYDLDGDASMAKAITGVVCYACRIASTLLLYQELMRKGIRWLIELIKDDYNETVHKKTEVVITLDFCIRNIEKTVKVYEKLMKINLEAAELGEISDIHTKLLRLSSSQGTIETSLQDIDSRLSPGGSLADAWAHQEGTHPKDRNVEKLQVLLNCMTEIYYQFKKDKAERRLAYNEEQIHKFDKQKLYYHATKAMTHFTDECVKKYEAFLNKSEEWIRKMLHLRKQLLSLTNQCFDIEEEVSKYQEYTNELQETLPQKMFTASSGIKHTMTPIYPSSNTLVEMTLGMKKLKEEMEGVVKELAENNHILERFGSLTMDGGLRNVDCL
Description: Selectivity interaction (Kinase panel (Z-LYTE Assay)) EUB0001632a TBK1. Particulars: at 10 µM.

For data set [9], the target named is Ribosomal protein S6 kinase alpha-4 (Homo sapiens) (UniProt O75676). Description: Selectivity interaction (Kinase panel (Z-LYTE Assay)) EUB0001632a RPS6KA4. Particulars: at 10 µM.
Data set [10] addresses Phosphatidylinositol 4,5-bisphosphate 3-kinase catalytic subunit beta isoform (Homo sapiens) (UniProt P42338). Description: Selectivity interaction (Adapta Assay) EUB0001632a PIK3CB. Particulars: at 10 µM.
For data set [11], the target named is Histone-lysine N-methyltransferase ASH1L (Homo sapiens) (UniProt Q9NR48). Particulars: at 10 µM.
Data set [12] has as its target T3, STE20-related kinase adapter protein alpha (Homo sapiens) (UniProt Q7RTN6).
T3 sequence (whole entry): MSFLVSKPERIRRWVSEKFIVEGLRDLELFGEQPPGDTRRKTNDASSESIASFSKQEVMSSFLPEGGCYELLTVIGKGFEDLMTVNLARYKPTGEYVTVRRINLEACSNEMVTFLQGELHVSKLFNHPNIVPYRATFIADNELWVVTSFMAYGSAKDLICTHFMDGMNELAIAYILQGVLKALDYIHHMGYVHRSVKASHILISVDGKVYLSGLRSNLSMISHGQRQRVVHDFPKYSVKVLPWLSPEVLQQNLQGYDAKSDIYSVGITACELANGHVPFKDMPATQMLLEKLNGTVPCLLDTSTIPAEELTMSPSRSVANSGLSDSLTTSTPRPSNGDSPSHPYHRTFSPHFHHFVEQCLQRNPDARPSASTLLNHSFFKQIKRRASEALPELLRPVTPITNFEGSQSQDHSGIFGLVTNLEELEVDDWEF
Description: Selectivity interaction (ActivX KiNativ screen (kinase selectivity in THP-1 cell lysates)) EUB0000639a STRADA. It is filed as subcellular. Particulars: lysate, at 1 µM.

Data set [13] concerns the target Death-associated protein kinase 2 (Homo sapiens) (UniProt Q9UIK4). Description: Selectivity interaction (KinomeScan (DiscoverX)) EUB0000229b DAPK2. Particulars: at 10 µM.
The next data set concerns the target Misshapen-like kinase 1 (Homo sapiens, UniProt Q8N4C8). Description: Selectivity interaction (KinomeScan (DiscoverX)) EUB0001619a MINK1. Particulars: at 1 µM.

Death-associated protein kinase 2 (Homo sapiens), sequence (Q9UIK4 whole entry, looked up): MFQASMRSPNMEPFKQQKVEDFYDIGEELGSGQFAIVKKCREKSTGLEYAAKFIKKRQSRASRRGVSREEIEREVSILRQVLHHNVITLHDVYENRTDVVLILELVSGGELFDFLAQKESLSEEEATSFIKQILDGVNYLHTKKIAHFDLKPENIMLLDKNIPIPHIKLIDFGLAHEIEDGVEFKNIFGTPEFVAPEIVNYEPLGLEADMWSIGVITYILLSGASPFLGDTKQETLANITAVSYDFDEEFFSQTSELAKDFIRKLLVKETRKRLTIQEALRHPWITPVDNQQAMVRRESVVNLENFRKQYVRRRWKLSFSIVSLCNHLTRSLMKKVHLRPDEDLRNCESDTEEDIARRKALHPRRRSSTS
Casein kinase II subunit alpha' (Homo sapiens), sequence (P19784 whole entry, looked up): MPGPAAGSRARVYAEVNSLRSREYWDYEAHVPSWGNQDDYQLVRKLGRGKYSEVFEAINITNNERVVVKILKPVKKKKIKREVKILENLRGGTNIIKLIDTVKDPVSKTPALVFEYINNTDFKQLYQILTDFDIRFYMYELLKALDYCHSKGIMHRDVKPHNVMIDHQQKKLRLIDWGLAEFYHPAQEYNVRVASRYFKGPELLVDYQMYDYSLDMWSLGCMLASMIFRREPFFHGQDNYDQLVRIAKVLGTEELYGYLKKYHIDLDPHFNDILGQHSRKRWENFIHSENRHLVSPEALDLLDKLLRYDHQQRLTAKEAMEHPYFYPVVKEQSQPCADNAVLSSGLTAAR
5-hydroxytryptamine receptor 5A (Homo sapiens), sequence (P47898 whole entry, canonical isoform): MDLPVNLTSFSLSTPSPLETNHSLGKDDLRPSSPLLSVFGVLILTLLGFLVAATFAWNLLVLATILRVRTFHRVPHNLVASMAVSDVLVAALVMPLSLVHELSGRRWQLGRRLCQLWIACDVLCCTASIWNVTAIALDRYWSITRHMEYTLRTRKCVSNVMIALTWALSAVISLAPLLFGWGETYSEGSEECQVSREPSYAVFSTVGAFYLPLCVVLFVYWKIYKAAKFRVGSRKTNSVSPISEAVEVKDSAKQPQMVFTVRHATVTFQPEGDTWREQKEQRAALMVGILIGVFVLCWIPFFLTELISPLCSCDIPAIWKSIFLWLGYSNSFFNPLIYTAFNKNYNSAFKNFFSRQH
Ribosomal protein S6 kinase alpha-4 (Homo sapiens), sequence (O75676 whole entry, looked up, canonical isoform): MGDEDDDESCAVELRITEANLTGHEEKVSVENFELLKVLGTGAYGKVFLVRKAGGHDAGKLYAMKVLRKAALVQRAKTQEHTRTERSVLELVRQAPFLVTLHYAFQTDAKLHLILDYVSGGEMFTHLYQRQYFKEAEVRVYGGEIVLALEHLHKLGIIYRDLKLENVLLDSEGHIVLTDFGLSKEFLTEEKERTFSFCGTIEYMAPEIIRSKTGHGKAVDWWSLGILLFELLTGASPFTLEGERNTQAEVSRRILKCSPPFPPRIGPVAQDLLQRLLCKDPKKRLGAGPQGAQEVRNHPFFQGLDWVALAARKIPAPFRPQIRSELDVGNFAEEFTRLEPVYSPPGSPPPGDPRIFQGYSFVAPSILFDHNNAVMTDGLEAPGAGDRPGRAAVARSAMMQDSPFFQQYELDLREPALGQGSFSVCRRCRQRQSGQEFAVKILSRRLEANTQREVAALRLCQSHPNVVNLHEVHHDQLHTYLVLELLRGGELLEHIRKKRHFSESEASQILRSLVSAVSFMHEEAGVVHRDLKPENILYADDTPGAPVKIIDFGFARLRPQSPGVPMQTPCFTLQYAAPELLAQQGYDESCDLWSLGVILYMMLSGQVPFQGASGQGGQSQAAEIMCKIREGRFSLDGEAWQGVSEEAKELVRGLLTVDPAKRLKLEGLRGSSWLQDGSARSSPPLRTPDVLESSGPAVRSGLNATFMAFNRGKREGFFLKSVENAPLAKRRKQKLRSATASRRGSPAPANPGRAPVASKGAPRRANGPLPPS
Mitogen-activated protein kinase kinase kinase 1, sequence (Q13233 whole entry): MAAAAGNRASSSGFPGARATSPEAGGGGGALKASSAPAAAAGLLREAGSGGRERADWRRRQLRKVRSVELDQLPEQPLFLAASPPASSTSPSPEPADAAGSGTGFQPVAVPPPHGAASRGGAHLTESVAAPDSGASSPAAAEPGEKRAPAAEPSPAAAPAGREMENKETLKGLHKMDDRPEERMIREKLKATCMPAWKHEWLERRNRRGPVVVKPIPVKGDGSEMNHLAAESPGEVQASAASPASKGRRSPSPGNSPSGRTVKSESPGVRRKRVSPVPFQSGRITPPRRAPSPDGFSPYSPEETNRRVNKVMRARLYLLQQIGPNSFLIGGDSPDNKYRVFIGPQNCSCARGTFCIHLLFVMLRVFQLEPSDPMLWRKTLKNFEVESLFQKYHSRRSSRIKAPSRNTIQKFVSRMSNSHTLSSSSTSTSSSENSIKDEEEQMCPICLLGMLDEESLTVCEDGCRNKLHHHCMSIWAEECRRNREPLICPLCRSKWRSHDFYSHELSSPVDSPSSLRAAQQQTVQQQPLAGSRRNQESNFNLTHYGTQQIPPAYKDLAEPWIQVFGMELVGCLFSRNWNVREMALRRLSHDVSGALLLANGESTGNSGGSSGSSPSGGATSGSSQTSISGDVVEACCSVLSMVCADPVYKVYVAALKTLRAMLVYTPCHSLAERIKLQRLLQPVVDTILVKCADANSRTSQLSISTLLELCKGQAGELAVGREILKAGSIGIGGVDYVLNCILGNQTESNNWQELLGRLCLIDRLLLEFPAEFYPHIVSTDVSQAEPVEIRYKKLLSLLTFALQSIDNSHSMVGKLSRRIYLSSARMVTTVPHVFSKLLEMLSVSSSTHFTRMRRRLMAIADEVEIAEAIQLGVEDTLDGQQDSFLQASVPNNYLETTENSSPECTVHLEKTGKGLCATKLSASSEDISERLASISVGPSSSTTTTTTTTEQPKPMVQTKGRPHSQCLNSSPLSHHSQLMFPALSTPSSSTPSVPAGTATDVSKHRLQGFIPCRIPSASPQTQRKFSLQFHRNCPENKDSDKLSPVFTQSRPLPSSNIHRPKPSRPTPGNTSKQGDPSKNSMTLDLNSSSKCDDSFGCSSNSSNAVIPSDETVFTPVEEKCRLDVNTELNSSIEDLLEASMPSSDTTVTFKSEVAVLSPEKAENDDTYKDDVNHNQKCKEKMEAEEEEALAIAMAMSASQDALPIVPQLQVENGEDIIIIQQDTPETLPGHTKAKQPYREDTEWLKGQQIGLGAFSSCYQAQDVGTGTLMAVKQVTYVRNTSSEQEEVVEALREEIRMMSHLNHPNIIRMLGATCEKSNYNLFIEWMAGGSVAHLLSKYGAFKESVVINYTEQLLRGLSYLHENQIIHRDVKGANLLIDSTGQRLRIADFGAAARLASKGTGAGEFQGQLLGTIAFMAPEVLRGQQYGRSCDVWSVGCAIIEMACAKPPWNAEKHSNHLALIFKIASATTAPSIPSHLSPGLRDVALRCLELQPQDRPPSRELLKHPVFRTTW
Misshapen-like kinase 1, sequence (Q8N4C8 whole entry, looked up): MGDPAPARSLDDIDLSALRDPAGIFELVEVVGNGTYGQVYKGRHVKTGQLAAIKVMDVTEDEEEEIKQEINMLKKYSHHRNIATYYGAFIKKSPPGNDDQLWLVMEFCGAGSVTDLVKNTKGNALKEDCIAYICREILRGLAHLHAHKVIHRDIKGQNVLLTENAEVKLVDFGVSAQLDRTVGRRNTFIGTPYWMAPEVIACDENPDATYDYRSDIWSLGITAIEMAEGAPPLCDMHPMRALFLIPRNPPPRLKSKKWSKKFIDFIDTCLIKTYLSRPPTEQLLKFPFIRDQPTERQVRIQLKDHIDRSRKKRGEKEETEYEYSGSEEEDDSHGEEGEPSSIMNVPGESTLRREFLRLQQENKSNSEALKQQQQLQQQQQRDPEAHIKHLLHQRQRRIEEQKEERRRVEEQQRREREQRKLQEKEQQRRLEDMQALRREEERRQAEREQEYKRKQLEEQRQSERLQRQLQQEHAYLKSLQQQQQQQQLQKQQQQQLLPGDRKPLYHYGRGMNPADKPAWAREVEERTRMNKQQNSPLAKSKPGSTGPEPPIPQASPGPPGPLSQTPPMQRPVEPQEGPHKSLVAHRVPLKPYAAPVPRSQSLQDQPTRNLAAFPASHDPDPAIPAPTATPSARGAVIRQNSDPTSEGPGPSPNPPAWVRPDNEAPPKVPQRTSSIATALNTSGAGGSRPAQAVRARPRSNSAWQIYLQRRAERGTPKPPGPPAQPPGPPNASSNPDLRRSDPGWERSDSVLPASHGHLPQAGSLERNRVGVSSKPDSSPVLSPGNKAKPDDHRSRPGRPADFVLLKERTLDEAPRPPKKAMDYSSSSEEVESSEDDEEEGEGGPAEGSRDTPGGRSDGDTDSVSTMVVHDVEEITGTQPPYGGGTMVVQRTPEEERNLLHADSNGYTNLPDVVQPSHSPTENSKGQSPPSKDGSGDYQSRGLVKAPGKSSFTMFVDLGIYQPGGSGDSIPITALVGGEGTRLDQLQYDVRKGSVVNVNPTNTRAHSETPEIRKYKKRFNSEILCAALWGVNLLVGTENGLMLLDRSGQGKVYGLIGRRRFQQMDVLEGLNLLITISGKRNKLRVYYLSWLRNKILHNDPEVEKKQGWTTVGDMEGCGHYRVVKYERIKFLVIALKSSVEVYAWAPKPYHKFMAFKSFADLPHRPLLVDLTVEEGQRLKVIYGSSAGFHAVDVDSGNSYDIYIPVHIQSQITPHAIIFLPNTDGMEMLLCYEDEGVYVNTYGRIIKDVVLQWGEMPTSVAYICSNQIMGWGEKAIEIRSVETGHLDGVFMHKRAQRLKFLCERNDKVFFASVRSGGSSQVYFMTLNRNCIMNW

With `Cc1cc([C@@H](C)Nc2ccccc2C(=O)O)c2nc(N3CCOCC3)cc(=O)n2c1` [AZD-6482], in [1], the % of control amounted to 100%.
As for `Nc1cnc(N2CCc3cc(S(=O)(=O)Nc4c(F)cc(Cl)cc4F)cc(N4CCCC4=O)c32)nc1` [TP-020n], the % of inhibition in data set [2] was -4.87%.
For the compound `CCC(=O)N1CCN(c2ccc(-n3c(=O)ccc4cnc5ccc(-c6cnc7ccccc7c6)cc5c43)cc2C(F)(F)F)CC1`, the % of control in data set [3] turned out to be 100%.
With `COc1cc(Nc2nc(C)cc(-c3cnn4nc(OC)ccc34)n2)cc(C(F)(F)F)c1`, the % of control in data set [4] worked out at 71%.
Regarding `CN(C)CCOc1ccc(-c2nc(-c3ccncc3)c(-c3ccc4c(c3)CC/C4=N\O)[nH]2)cc1`, the % of control in data set [5] is 45%.
Turning to `Cc1cc(F)c(C(=O)Nc2cccc(-c3nncn3C(C)C)n2)cc1-n1cnc(C2CC2)c1`, in [6], the % of control was found to be 100%.
Turning to `CC(=O)c1cc(-c2ccccc2OCC2CC2)c2ncccn12`, at hERG (KCNH2), the activity was 111%.
For `C=CC(=O)Nc1cc(-n2c(=O)ccc3cnc4ccc(-c5ccc(NS(C)(=O)=O)cc5)cc4c32)ccc1C`, the % of control in data set [7] (at 1 µM) came to 100%; in data set [7] (at 10 µM) it was 52%.
For the compound `Cn1cc(-n2cnc3c(NCc4nc5cc(Cl)c(Cl)cc5[nH]4)nc(N4CCOCC4)nc32)cn1`, the figures for the % of control in [8] and in [9] were -4.28% and 0.55%, respectively. For the same compound, in data set [10], the % of inhibition was -11.2%.
In the case of `CNCCN1CCC(c2cc(CN(C)C(=O)c3cccc(Oc4ccccc4)c3)ccn2)CC1`, the % activity in data set [11] is > 90%.
Take `CC[C@@H]1[C@H](F)C(=O)N[C@@H]1COc1nccc2cc(C(N)=O)c(OC)cc12` [ZIMLOVISERTIB]: the % of inhibition in [12] is -7.6%.
For the compound `COc1cc(N(C)c2ccnc3ccc(C(F)(F)F)cc23)cc(OC)c1OC`, the % binding in [13] was found to be 96%.
`N#Cc1cccc(-c2c[nH]c3ncnc(N4CCOCC4)c23)c1`: at Misshapen-like kinase 1, the % of control is 46%.
